The values that follow come from US11274118B2 (priority 2012, dated 2022).

≈ marks a conversion by molar mass, not a printed value.

The test system of data set [1] is Primary cortical cells. Briefly: Reduction of neuronal cell death after a glutamate challenge (MTT / LDH release). In kind it is cell-based. The following applies: for inhibition at 5 µM: 24 h, read-out: reduction in cell death at a 5 μM dose; for dose at maximum efficacy: glutamate challenge, primary cortical cells; for Emax: read-out: maximum efficacy, reduction in cell death. (In general: LDH in the medium is a marker of cell lysis.)

Data set [2] can be described thus: physchem. The following applies: kinetic from dmso stock.
The nature of data set [3]: physchem. The following applies: buffer, pH 7.
In data set [4] the test system is cerebral edema in rats following bilateral cortical contusion. The following applies: rat, in vivo, iv, 4 mg/kg.
The conditions of data set [5]: rat, in vivo, iv, 4 mg/kg.
For data set [6] the following is noted: neutral pH.

As to `C/C(=N\OCCN1CCOCC1)[C@H]1CC[C@H]2[C@@H]3CCC4=CC(=O)CC[C@]4(C)[C@H]3CC[C@]12C` [Compound 5, (8S,9S,10R,13S,14S,17S)-10,13-Dimethyl-17-((E)-1-(2-morpholinoethoxyimino)ethyl)-6,7,8,9,10,11,12,13,14,15,16,17-dodecahydro-1H-cyclopenta[a]phenanthren-3 (2H)-one], in data set [1], the inhibition at 5 µM came out at 26%, the “dose at maximum efficacy” value amounted to 5 µM and the Emax was found to be 26%. Moreover, the solubility (usually the dissolved amount per volume that the medium holds) at 90 min in data set [2] (pH 4, aqueous buffer) is greater than 450 µM. The same compound yielded a solubility at 90 min in data set [2] (pH 7, aqueous buffer) of 108 µM (≈ 47.8 µg/mL). Besides, the half-life – broadly, how long it takes for the measured level to halve – in data set [3] is greater than 240 h.
Take `CC(=O)[C@H]1CC[C@H]2[C@@H]3CCC4=C/C(=N/O)CC[C@]4(C)[C@H]3CC[C@]12C` [Compound 2, 1-((8S,9S,10R,13S,14S,17S,E)-3-(Hydroxyimino)-10,13-dimethyl-2,3,6,7,8,9,10,11,12,13,14,15,16,17-tetradecahydro-1H-cyclopenta[a]phenanthren-17-yl)ethanone]: in data set [1], the inhibition at 5 µM amounted to 21%, the “dose at maximum efficacy” value was 5 µM and the Emax stood at 21%. For the same compound, the “reduction of brain edema” value in data set [4] came to 60%. Moreover, the “concentrations of circulating drug” value in data set [5] is reported as “micromolar concentrations”. Also, in data set [2] (pH 4, aqueous buffer), the solubility at 90 min is less than 45 µM. This compound also had a solubility at 90 min in data set [2] (pH 7, aqueous buffer) of less than 45 µM. This compound also had a half-life in data set [3] greater than 240 h.
On to `C/C(=N\OC(=O)CN1CCN(C)CC1)[C@H]1CC[C@H]2[C@@H]3CCC4=CC(=O)CC[C@]4(C)[C@H]3CC[C@]12C` [Compound 13, (8S,9S,10R,13S,14S,17S)-10,13-Dimethyl-17-((E)-1-(2-(4-methylpiperazin-1-yl)acetoxyimino)ethyl)-6,7,8,9,10,11,12,13,14,15,16,17-dodecahydro-1H-cyclopenta[a]phenanthren-3 (2H)-one], for which the solubility at 90 min in data set [2] (pH 4, aqueous buffer) turned out to be 153 µM (≈ 71.9 µg/mL); in data set [2] (pH 7, aqueous buffer), 145 µM (≈ 68.1 µg/mL). This compound also had a half-life in data set [3] of roughly 72 h.
For `CO/N=C(\C)[C@H]1CC[C@H]2[C@@H]3CCC4=CC(=O)CC[C@]4(C)[C@H]3CC[C@]12C` [Compound 4, (8S,9S,10R,13S,14S,17S)-17-((E)-1-(Methoxyimino)ethyl)-10,13-dimethyl-6,7,8,9,10,11,12,13,14,15,16,17-dodecahydro-1H-cyclopenta[a]phenanthren-3(2H)-one] the same measures were less than 25 µM, less than 25 µM and greater than 240 h.
For `C/C(=N\OC(=O)[C@@H]1CCC[N+]1(C)C)[C@H]1CC[C@H]2[C@@H]3CCC4=CC(=O)CC[C@]4(C)[C@H]3CC[C@]12C.[I-]` [Compound 9, (8S,9S,10R,13S,14S,17S)-10,13-Dimethyl-17-((E)-1-((S)-1,1-Dimethylpyrrolidine-2-carbonyloxyimino)ethyl)-6,7,8,9,10,11,12,13,14,15,16,17-dodecahydro-1H-cyclopenta[a]phenanthren-3(2H)-one iodide] the same measures were 345 µM, 51 µM and 0.833 h.
With `C/C(=N\O)[C@H]1CC[C@H]2[C@@H]3CCC4=CC(=O)CC[C@]4(C)[C@H]3CC[C@]12C` [Compound 3, (8S,9S,10R,13S,14S,17S)-17-((E)-1-(Hydroxyimino)ethyl)-10,13-dimethyl-6,7,8,9,10,11,12,13,14,15,16,17-dodecahydro-1H-cyclopenta[a]phenanthren-3(2H)-one], the “aqueous solubility” value in data set [6] was “highly insoluble”.
